According to US10590140B2, “Tetrahydropyrimidodiazepine and dihydropyridodiazepine compounds for treating pain and pain related conditions” (ESTEVE PHARMACEUTICALS, S.A., priority 2016, dated 2020):
Like-named read-outs stand apart in the source and are kept apart here.

Target: human α2δ-1 subunit of Cav2.2 calcium channel (Homo sapiens (Human), UniProt P54289)
Assay: Binding assay to human α2δ-1 subunit of Cav2.2 calcium channel ([3H]-Gabapentin)
Method: Binding Assay to Human α2δ-1 Subunit of Cav2.2 Calcium Channel.
NSB (non specific binding) was measured by adding 10 μM pregabalin. After 60 min incubation at 27° C., binding reaction was terminated by filtering through Multiscreen GF/C (Millipore) presoaked in 0.5% polyethyleneimine in Vacuum Manifold Station, followed by 3 washes with ice-cold filtration buffer containing 50 mM Tris-HCl, pH 7.4.
Filter plates were dried at 60° C. for 1 hour and 30 μl of scintillation cocktail were added to each well before radioactivity reading.

[1] = binding to α2δ-1, [3H]-Gabapentin, read-out: Ki (nM) α2δ-1

Chain of human α2δ-1 subunit of Cav2.2 calcium channel (P54289 25-1103): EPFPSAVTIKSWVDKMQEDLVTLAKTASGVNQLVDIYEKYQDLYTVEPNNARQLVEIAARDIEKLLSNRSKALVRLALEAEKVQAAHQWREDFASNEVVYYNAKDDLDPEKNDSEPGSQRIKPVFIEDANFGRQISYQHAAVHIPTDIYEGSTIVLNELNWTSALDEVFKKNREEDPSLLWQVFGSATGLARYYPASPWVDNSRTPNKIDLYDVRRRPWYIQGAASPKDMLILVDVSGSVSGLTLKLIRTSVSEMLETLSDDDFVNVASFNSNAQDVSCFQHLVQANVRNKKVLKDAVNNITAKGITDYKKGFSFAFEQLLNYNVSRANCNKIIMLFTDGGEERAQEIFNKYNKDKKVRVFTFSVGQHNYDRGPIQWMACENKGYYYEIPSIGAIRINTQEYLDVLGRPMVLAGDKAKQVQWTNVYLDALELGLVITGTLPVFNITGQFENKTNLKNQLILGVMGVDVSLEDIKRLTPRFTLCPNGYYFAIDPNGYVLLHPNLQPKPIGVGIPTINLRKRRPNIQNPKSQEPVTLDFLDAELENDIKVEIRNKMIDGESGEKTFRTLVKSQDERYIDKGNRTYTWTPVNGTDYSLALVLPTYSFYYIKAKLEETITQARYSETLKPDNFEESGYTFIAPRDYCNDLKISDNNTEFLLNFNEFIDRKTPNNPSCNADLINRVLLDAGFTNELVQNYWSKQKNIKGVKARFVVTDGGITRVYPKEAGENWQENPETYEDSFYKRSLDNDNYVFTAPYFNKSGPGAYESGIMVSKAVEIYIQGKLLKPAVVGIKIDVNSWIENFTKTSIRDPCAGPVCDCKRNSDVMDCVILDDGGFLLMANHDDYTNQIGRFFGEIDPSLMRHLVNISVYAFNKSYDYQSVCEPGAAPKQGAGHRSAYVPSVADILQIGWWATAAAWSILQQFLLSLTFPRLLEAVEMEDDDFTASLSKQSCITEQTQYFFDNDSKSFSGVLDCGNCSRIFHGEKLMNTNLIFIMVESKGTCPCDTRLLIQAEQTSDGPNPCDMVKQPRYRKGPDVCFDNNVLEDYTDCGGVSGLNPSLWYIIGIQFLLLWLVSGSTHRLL

Row | Compound | Ki [1] [nM] | Ki [nM]
1 | CCNc1ncc2c(n1)N(C)CCN(c1cccc(CO[C@@H](CCN(C)C(=O)OC(C)(C)C)c3ccccc3)c1)C2=O [Example 79, tert-butyl (S)-(3-((3-(2-(ethylamino)-9-methyl-5-oxo-5,7,8,9-tetrahydro-6H-pyrimido[4,5-e][1,4]diazepin-6-yl)benzyl)oxy)-3-phenylpropyl)(methyl) carbamate] | > 3000 | 
2 | CCNc1ncc2c(n1)N(C)CCN(c1cccc(CN(C)C(=O)OC(C)(C)C)c1)C2=O [Example 94, tert-butyl (3-(2-(ethylamino)-9-methyl-5-oxo-5,7,8,9-tetrahydro-6H-pyrimido[4,5-e][1,4]diazepin-6-yl)benzyl)(methyl) carbamate] | > 3000 | 
3 | CCNc1ncc2c(n1)N(C)CCN(Cc1ccc(OC)cc1)C2 [Example 68, N-ethyl-6-(4-methoxybenzyl)-9-methyl-6,7,8,9-tetrahydro-5H-pyrimido[4,5-e][1,4]diazepin-2-amine] | > 3000 | 
4 | CCNc1ncc2c(n1)N(C)CCN(c1cccc(-n3cc(CN4CCC(c5cccc(O)c5)(N(C)C)CC4)nn3)c1)C2=O [Example 293, 6-(3-(4-((4-(dimethylamino)-4-(3-hydroxyphenyl)piperidin-1-yl)methyl)-1H-1,2,3-triazol-1-yl)phenyl)-2-(ethylamino)-9-methyl-6,7,8,9-tetrahydro-5H-pyrimido[4,5-e] [1,4]diazepin-5-one] |  | 100 to 500
5 | CCNc1ncc2c(n1)N(C)CCN(c1ccc(O[Si](C)(C)C(C)(C)C)cc1)C2=O [Example 115] | > 3000 | 

More lines, main results first:

Row | Ki [1] [nM] | Compound | Ki [nM]
6 | 500 to 3000 | CCNc1ncc2c(n1)N(C)CCN(c1cccc(OCCCN(C)CCc3ccccc3)c1)C2=O [Example 258, 2-(ethylamino)-9-methyl-6-(3-(3-(methyl(phenethyl)amino)propoxy)phenyl)-6,7,8,9-tetrahydro-5H-pyrimido[4,5-e][1,4]diazepin-5-one] | 
7 | 100 to 500 | CCNc1ncc2c(n1)N(C)CCN(c1cccc(OCCCNC)c1)C2=O [Example 168, 2-(ethylamino)-9-methyl-6-(3-(3-(methylamino)propoxy)phenyl)-6,7,8,9-tetrahydro-5H-pyrimido[4,5-e][1,4]diazepin-5-one] | 
8 | > 3000 | CCNc1ncc2c(n1)N(C)CCN(c1cccc(Cn3cc(CN(C)C(=O)OC(C)(C)C)nn3)c1)C2=O [Example 121, tert-butyl ((1-(3-(2-(ethylamino)-9-methyl-5-oxo-5,7,8,9-tetrahydro-6H-pyrimido[4,5-e][1,4]diazepin-6-yl)benzyl)-1H-1,2,3-triazol-4-yl)methyl)(methyl) carbamate] | 
9 | 100 to 500 | CNCC[C@H](Oc1ccc(CN2CCN(C)c3c(F)cncc3C2=O)cc1)c1cccs1 [Example 399, (S)-9-fluoro-1-methyl-4-(4-(3-(methylamino)-1-(thiophen-2-yl)propoxy)benzyl)-1,2,3,4-tetrahydro-5H-pyrido[4,3-e][1,4]diazepin-5-one] | 
10 | > 3000 | CCNc1ncc2c(n1)N(C)CCN(c1cccc(C(=O)O)c1)C2=O [Example 313, 3-(2-(ethylamino)-9-methyl-5-oxo-5,7,8,9-tetrahydro-6H-pyrimido[4,5-e][1,4]diazepin-6-yl)benzoic acid] | 
11 | < 100 | CNCC[C@H](Oc1ccc(CN2CCN(C)c3nc(OC)ncc3C2=O)c(C)c1)c1cccs1 [Example 397, (S)-2-methoxy-9-methyl-6-(2-methyl-4-(3-(methylamino)-1-(thiophen-2-yl)propoxy)benzyl)-6,7,8,9-tetrahydro-5H-pyrimido[4,5-e][1,4]diazepin-5-one] | 
12 | > 3000 | CCNc1ncc2c(n1)N(C)CCN(c1cccc(C3CCN(C(=O)OC(C)(C)C)CC3)c1)C2=O [Example 234, tert-Butyl 4-(3-(2-(ethylamino)-9-methyl-5-oxo-5,7,8,9-tetrahydro-6H-pyrimido[4,5-e][1,4]diazepin-6-yl)phenyl)piperidine-1-carboxylate] | 
13 | > 3000 | CNCCC(Oc1ccc(N2CCN(C)c3ncncc3C2=O)cc1)c1ccccc1 (stereo not shown) [Example 361, 9-methyl-6-(4-(3-(methylamino)-1-phenylpropoxy)phenyl)-6,7,8,9-tetrahydro-5H-pyrimido[4,5-e][1,4]diazepin-5-one] | 
